Measured values published in patent publication US5036054A, “Renin inhibitors containing alpha-heteroatom amino acids” (Warner-Lambert Company, priority 1988, dated 1991).

These compounds were tested against T1, renin (Homo sapiens, UniProt P00797) (assay: in vitro renin inhibitory activity, radioimmunoassay for angiotensin I). Settings: 10^-6 molar test compound; renin incubated 2 hours at 37° with substrate angiotensinogen; angiotensin I by radioimmunoassay.
T1 sequence (P00797 67-406): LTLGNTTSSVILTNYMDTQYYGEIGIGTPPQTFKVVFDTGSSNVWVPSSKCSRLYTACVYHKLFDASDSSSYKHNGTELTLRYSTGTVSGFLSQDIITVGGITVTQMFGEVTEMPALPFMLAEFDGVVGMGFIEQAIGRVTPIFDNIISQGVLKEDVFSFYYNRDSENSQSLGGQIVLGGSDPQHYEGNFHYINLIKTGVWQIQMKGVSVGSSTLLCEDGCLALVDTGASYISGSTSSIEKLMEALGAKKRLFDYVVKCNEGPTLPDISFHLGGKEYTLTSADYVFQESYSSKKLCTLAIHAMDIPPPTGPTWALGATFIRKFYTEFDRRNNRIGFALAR
Assay type: biochemical
Experimental: The effectiveness of the aforementioned compounds is determined by a test for in vitro renin inhibitory activity. This activity is determined by a standard radioimmunoassay for angiotensin I. In this assay the enzyme, renin, incubated for 2 hours at 37° in the presense of a substrate, angiotensinogen, generates the product, angiotensin I. Test compounds are added to the incubation mixture. Relative activity is reported as the percent inhibition at 10^-6 molar concentration.

Activity % Inhibition @ 10^-6 M [%] | Compound
87 | CCC(C)CNC(=O)CC(O)C(CC(C)C)NC(=O)C(NC(=O)C(Cc1cccc2ccccc12)Cc1cccc2ccccc12)SC(C)C (single isomer, unassigned) [DNMANHCH(SCH(CH3)2)COSTANHCH2 CH(CH3)CH2 CH3 (fast isomer), DNMA-NHCH(SCH(CH3)2)CO-STA-NHCH2 CH(CH3)CH2 CH3]
26 | CCC(C)CNC(=O)CC(O)C(CC(C)C)NC(=O)C(NC(=O)C(Cc1cccc2ccccc12)Cc1cccc2ccccc12)SC(C)C (single isomer, unassigned) [DNMANHCH(SCH(CH3)2)COSTANHCH2 CH(CH3)CH2 CH3 (slow isomer), DNMA-NHCH(SCH(CH3)2)CO-STA-NHCH2 CH(CH3)CH2 CH3]
90 | CCC(C)CNC(=O)C[C@H](O)[C@H](CC(C)C)NC(=O)C(NC(=O)C(Cc1cccc2ccccc12)Cc1cccc2ccccc12)OC (some centres unmarked) [DNMANHCH(OCH3)COSTANHCH2 CH(CH3)CH2 CH3, DNMA-NHCH(OCH3)CO-STA-NHCH2 CH(CH3)CH2 CH3]
86 | CCC(C)CNC(=O)CC(O)C(CC(C)C)NC(=O)C(NC(=O)C(Cc1cccc2ccccc12)Cc1cccc2ccccc12)SC (centres unmarked) [DNMANHCH(SCH3)COSTANHCH2 CH(CH3)CH2 CH3, DNMA-NHCH(SCH3)CO-STA-NHCH2 CH(CH3)CH2 CH3]
35 | CCC(C)CNC(=O)CC(O)C(CC(C)C)NC(=O)C(NC(=O)C(Cc1cccc2ccccc12)Cc1cccc2ccccc12)[S+](C)[O-] (centres unmarked) [DNMANHCH(SOCH3)COSTANHCH2 CH(CH3)CH2 CH3, DNMA-NHCH(SOCH3)CO-STA-NHCH2 CH(CH3)CH2 CH3]
40 | CCC(C)CNC(=O)CC(O)C(CC(C)C)NC(=O)C(NC(=O)C(Cc1cccc2ccccc12)Cc1cccc2ccccc12)Sc1ccccc1 (centres unmarked) [DNMANHCH(SPh)COSTANHCH2 CH(CH3)CH2 CH3, DNMA-NHCH(SPh)CO-STA-NHCH2 CH(CH3) CH2 CH3]
15 | DNMA-NHCH(OC2 H5)CO-STA-NHCH2 CH(CH3)CH2 CH3 [DNMANHCH(OC2 H5)COSTANHCH2 CH(CH3)CH2 CH3 (slow isomer)]

Continued, compound first:

Compound | Activity % Inhibition @ 10^-6 M [%]
CCC(C)CNC(=O)CC(O)C(CC(C)C)NC(=O)C(NC(=O)C(Cc1cccc2ccccc12)Cc1cccc2ccccc12)N(C)C (single isomer, unassigned) [DNMANHCH(N(CH3)2)COSTANHCH2 CH(CH3)CH2 CH3 (slow isomer), DNMA-NHCH(N(CH3)2 CO-STA-NHCH2 CH(CH3)CH2 CH3] | 55
CCC(C)CNC(=O)CC(O)C(CC(C)C)NC(=O)C(N)NC(=O)C(Cc1cccc2ccccc12)Cc1cccc2ccccc12 (single isomer, unassigned) [DNMANHCH(NH2)COSTANHCH2 CH(CH3)CH2 CH3 (fast isomer), DNMA-NHCH(NH2)CO-STA-NHCH2 CH(CH3)CH2 CH3] | 9
CCOC(NC(=O)C(Cc1cccc2ccccc12)Cc1cccc2ccccc12)C(=O)N[C@@H](CC(C)C)[C@@H](O)CC(=O)NCC(C)CC (single isomer, unassigned) [DNMANHCH(OC2 H5)COSTANHCH2 CH(CH3)CH2 CH3 (fast isomer), DNMA-NHCH(OC2 H5)CO-STA-NHCH2 CH(CH3)CH2 CH3] | 100
CCOC(=O)NC(NC(=O)C(Cc1cccc2ccccc12)Cc1cccc2ccccc12)C(=O)NC(CC(C)C)C(O)CC(=O)NCC(C)CC (centres unmarked) [DNMA-NHCH(NHCO2 Et)CO-STA-NHCH2 CH(CH3)CH2 CH3] | 40
CCC(C)CNC(=O)CC(O)C(CC(C)C)NC(=O)C(NC(C)=O)NC(=O)C(Cc1cccc2ccccc12)Cc1cccc2ccccc12 (centres unmarked) [DNMA-NHCH(NHCOCH3)CO-STA-NHCH2 CH(CH3)CH2 CH3] | 39
CCC(C)CNC(=O)CC(O)C(CC(C)C)NC(=O)C(NC(=O)C(Cc1cccc2ccccc12)Cc1cccc2ccccc12)Nc1ccccc1 (centres unmarked) [DNMANHCH(NHPh)COSTANHCH2 CH(CH3)CH2 CH3, DNMA-NHCH(NHPh)CO-STA-NHCH2 CH(CH3)CH2 CH3] | 56
DNMA-NHCH(NH2)CO-STA-NHCH2 CH(CH3)CH2 CH3 [DNMANHCH(NH2)COSTANHCH2 CH(CH3)CH2 CH3 (slow isomer)] | 54
DNMA-NHCH(NH(CH2)3 NHCSNHCH3)CO-STA-NHCH2 CH(CH3)CH2 CH3 | 36
DNMA-NHCH(NHC2 H5)CO-STA-NHCH2 CH(CH3) CH2 CH3 [DNMANHCH(NHC2 H5)COSTANHCH2 CH(CH3)CH2 CH3 (slow isomer)] | 71
DNMA-NHCH(NHCH(CH3)2)CO-STA-NHCH2 CH(CH3)CH2 CH3 [DNMA-NHCH(NHCH(CH3)2)COSTANHCH2 CH(CH3)CH2 CH3 (slow isomer)] | 60
